Test results reported in patent publication US20230132823A1, “BI-FUNCTIONAL COMPOUNDS AND METHODS FOR TARGETED UBIQUITINATION OF ANDROGEN RECEPTOR” (MONTELINO THERAPEUTICS, INC., priority 2020, published 2023).

Tests used:
22Rv1-Enz^R = 22Rv1-Enz^R cell proliferation assay, GIC50 (Experimental Example 4); assay type: cell-based; conditions: Homo sapiens; 6-day culture, cell media changed every 24 hours
Method: Selected compounds were tested in the human prostate cancer cell line, 22Rv1-Enz^R as described in Geun Taek Lee et al., Molecular Cancer Therapeutics, 20:490-9 (2021). These procedures are similar to that described in Experimental Example 1, above, except that the assay conditions are a 6-day culture with cell media changed every 24 hours.
In the Table: (+)—GIC50<20 μM; (++)—GIC50<10 μM; (+++)—GIC50<1 μM.

22Rv1 = 22Rv1 cell proliferation assay (Experimental Example 1, cell count); assay type: cell-based; conditions: Homo sapiens, 22Rv1, read-out: 22Rv1 cell count decrease at 10 μM for 48 hours; 10 μM (method: four days); read-out: 22Rv1 cell count decrease at 10 μM
Method: The human prostate cancer cell line, 22Rv1 has been reported to express a high level of AR-V7. […] Standard culture media was RPMI-1640 supplemented with 10% fetal bovine serum. The test compound initially was dissolved in DMSO at 50 mM. This stock solution was then diluted as needed for the indicated concentrations. […]
In the Table: (+)—the cell count decreased between 0 and 20%; (++)—the cell count decreased […]; (+++)—the cell count decreased by more than 50%.

22Rv1-Enz^R cells = test: 22Rv1-Enz^R cell proliferation (cell count, Experimental Example 3); assay type: cell-based, human; conditions: 10 μM, 4 days, MG-132 (5 μM) pretreatment
Method: The human prostate cancer cell line, 22Rv1 has been reported to express a high level of AR-V7. Thus, 22Rv1 was seeded at 50,000 cells/well on a 24-well plate in quadruplicates and treated with test compound in concentrations ranging up to 20 μM for four days. Standard culture media was RPMI-1640 supplemented with 10% fetal bovine serum. The test compound initially was dissolved in DMSO at 50 mM. This stock solution was then diluted as needed for the indicated concentrations. At the end of the four-day period, cells were harvested using 1% trypsin and counted using an automated cell counter.
Cell Culture. Human CaP cell lines, LNCaP, 22Rv1, VCaP, PC3, and DU145 are obtained from the American Type Culture Collection (ATCC) and maintained in the standard culture media: RPMI-1640 supplemented with 10% fetal bovine serum (FBS). LNCaP, 22Rv1, and VCaP are androgen-responsive cell lines, while PC3 and DU145 are not. To establish SAT resistant CaP cell lines, LNCaP, 22Rv1, and VCaP are treated continuously with 10-50 μM abiraterone, apalutamide, darolutamide, or enzalutamide. After 3-6 months, stable cell lines are established and designated as LNCaP-Abi^R, LNCaP-Apa^R, LNCaP-Daro^R, LNCaP-Enz^R, VCaP-Abi^R, VCaP-Apa^R, VCaP-Daro^R, VCaP-Enz^R, 22Rv1-Abi^R, 22Rv1-Apa^R, 22Rv1-Daro^R and 22Rv1-Enz^R. Unless otherwise specified, the standard culture media for these SAT-resistant cell lines included 10 μM of their respective SAT. For the proteasome inhibitor study, the inhibitors MG132 and Epoxomicin are used. The E3 ligase inhibitors Heclin, Nutlin 3a, Thalidomide, and VH298 are used. Cell lines obtained from ATCC are confirmed by checking their morphology using optical microscopy, establishing baselines for cell proliferation, verifying species of origin using isoenzymology, and characterizing the cell's DNA fingerprint using short tandem repeat (STR) profiling. Mycoplasma contamination is also assessed using a PCR based detection system.

22Rv1 cells = test: Apoptosis assay (annexin-V, TUNEL) in 22Rv1; assay type: cell-based, human; conditions: 22Rv1, 1 μM, 0 to 48 hours; starts approximately three hours after treatment, increases through 48 hours
Method: Apoptosis Assay. An apoptosis assay is carried out using the Thermo Fisher ApoDETECT Annexin V-FITC kit following the protocol recommended by the vendor. […] Then, fixed cells are incubated with Annexin V-FITC in PBS solution for 30 minutes at room temperature. After washing three times with PBS, cells are treated with 300 nM DAPI in PBS for 5 minutes at room temperature. Finally, after washing three times with PBS, mounting solution is added and the cells are visualized using immunofluorescence microscopy. Next, a TUNEL assay is performed using Promega DeadEnd Fluorometric TUNEL system. After treatment with Test Compound and fixation as described above in the Annexin-V experiment, 100 μl of equilibration buffer is incubated for 10 min. Then, 50 μl of TdT reaction mix is added and incubated for 60 min at 37° C. in a humidified chamber. Finally, stop solution is added and samples are mounted on slides using mounting medium. To assess non-specific cytotoxicity, an LDH assay kit is used.

IC50 (22Rv1-Enz^R) [µM]	SMILES	inhibition at 10 µM (22Rv1) [%]	further results
< 20	O=C(COc1c(-c2csc(N3CCOCC3)n2)ccc(F)c1F)NCCCCCCNc1cccc2c1C(=O)N(C1CCC(=O)NC1=O)C2=O (stereo not shown) [Example 1, 2-(2,3-difluoro-6-(2-morpholinothiazol-4-yl)phenoxy)-N-(6-((2-(2,6-dioxopiperidin-3-yl)-1,3-dioxoisoindolin-4-yl)amino)hexyl)acetamide]	< 50	
< 20	O=C(COc1c(-c2csc(N3CCOCC3)n2)ccc(F)c1F)NCCCCCCCCCCNc1cccc2c1C(=O)N(C1CCC(=O)NC1=O)C2=O (stereo not shown) [Example 3, 2-(2,3-difluoro-6-(2-morpholinothiazol-4-yl)phenoxy)-N-(10-((2-(2,6-dioxopiperidin-3-yl)-1,3-dioxoisoindolin-4-yl)amino)decyl)acetamide]	< 50	
	Cl.NCCCCCCCCCCNc1cccc2c1C(=O)N(C1CCC(=O)NC1=O)C2=O (stereo not shown) [Example 34, 4-((10-aminodecyl)amino)-2-(2,6-dioxopiperidin-3-yl)isoindoline-1,3-dione hydrochloride]	< 50	reduction of 22Rv1-Enz^R cell counts after pretreatment with MG-132 (22Rv1-Enz^R cells): substantially blocked
	CN[C@@H](C)C(=O)N[C@H](C(=O)N1Cc2cc(OCCOCCOc3c(-c4csc(N5CCOCC5)n4)ccc(F)c3F)ccc2C[C@H]1C(=O)N[C@@H]1CCCc2ccccc21)C(C)(C)C.Cl.Cl [Example 35, (S)-7-(2-(2-(2,3-difluoro-6-(2-morpholinothiazol-4-yl)phenoxy)ethoxy)ethoxy)-2-((S)-3,3-dimethyl-2-((S)-2-(methylamino)propanamido)butanoyl)-N-((R)-1,2,3,4-tetrahydronaphthalen-1-yl)-1,2,3,4-tetrahydroisoquinoline-3-carboxamide dihydrochloride]	> 50	reduction of 22Rv1-Enz^R cell counts after pretreatment with MG-132 (22Rv1-Enz^R cells): substantially blocked
< 1	Cc1ccc(-c2csc(N3CCOCC3)n2)c(OCC(=O)NCCCCC(=O)N[C@H](C(=O)N2C[C@H](O)C[C@H]2C(=O)N[C@@H](C)c2ccc(-c3scnc3C)cc2)C(C)(C)C)c1C [Example 37, (2S,4R)-1-((S)-2-(5-(2-(2,3-dimethyl-6-(2-morpholinothiazol-4-yl)phenoxy)acetamido)pentanamido)-3,3-dimethylbutanoyl)-4-hydroxy-N-((S)-1-(4-(4-methylthiazol-5-yl)phenyl)ethyl)pyrrolidine-2-carboxamide]		
< 20	Cc1ncsc1-c1ccc([C@H](C)NC(=O)[C@@H]2C[C@@H](O)CN2C(=O)[C@@H](NC(=O)CCC(=O)NCCCOc2c(-c3csc(N4CCOCC4)n3)ccc(F)c2F)C(C)(C)C)cc1 [Example 38, N^1-(3-(2,3-difluoro-6-(2-morpholinothiazol-4-yl)phenoxy)propyl)-N^4-((S)-1-((2S,4R)-4-hydroxy-2-(((S)-1-(4-(4-methylthiazol-5-yl)phenyl)ethyl)carbamoyl)pyrrolidin-1-yl)-3,3-dimethyl-1-oxobutan-2-yl)succinamide]		
< 20	Cc1ncsc1-c1ccc([C@H](C)NC(=O)[C@@H]2C[C@@H](O)CN2C(=O)[C@@H](NC(=O)CCC(=O)NCCOCCOc2c(-c3csc(N4CCOCC4)n3)ccc(F)c2F)C(C)(C)C)cc1 [Example 39, N^1-(2-(2-(2,3-difluoro-6-(2-morpholinothiazol-4-yl)phenoxy)ethoxy)ethyl)-N^4-((S)-1-((2S,4R)-4-hydroxy-2-(((S)-1-(4-(4-methylthiazol-5-yl)phenyl)ethyl)carbamoyl)pyrrolidin-1-yl)-3,3-dimethyl-1-oxobutan-2-yl)succinamide]		
< 1	Cc1ncsc1-c1ccc([C@H](C)NC(=O)[C@@H]2C[C@@H](O)CN2C(=O)[C@@H](NC(=O)CNCCOCCOc2c(-c3csc(N4CCOCC4)n3)ccc(F)c2F)C(C)(C)C)cc1 [Example 40, (2S,4R)-1-((S)-2-(2-((2-(2-(2,3-difluoro-6-(2-morpholinothiazol-4-yl)phenoxy)ethoxy)ethyl)amino)acetamido)-3,3-dimethylbutanoyl)-4-hydroxy-N-((S)-1-(4-(4-methylthiazol-5-yl)phenyl)ethyl)pyrrolidine-2-carboxamide]		
< 10	Cc1ncsc1-c1ccc([C@H](C)NC(=O)[C@@H]2C[C@@H](O)CN2C(=O)[C@@H](NC(=O)CCCCOc2c(-c3csc(N4CCOCC4)n3)ccc(F)c2F)C(C)(C)C)cc1 [Example 41, (2S,4R)-1-((S)-2-(5-(2,3-difluoro-6-(2-morpholinothiazol-4-yl)phenoxy)pentanamido)-3,3-dimethylbutanoyl)-4-hydroxy-N-((S)-1-(4-(4-methylthiazol-5-yl)phenyl)ethyl)pyrrolidine-2-carboxamide]		
< 10	Cc1ncsc1-c1ccc([C@H](C)NC(=O)[C@@H]2C[C@@H](O)CN2C(=O)[C@@H](NC(=O)CCCCOc2c(F)ccc3sc(N4CCOCC4)nc23)C(C)(C)C)cc1 [Example 42, (2S,4R)-1-((S)-2-(5-((5-fluoro-2-morpholinobenzo[d]thiazol-4-yl)oxy)pentanamido)-3,3-dimethylbutanoyl)-4-hydroxy-N-((S)-1-(4-(4-methylthiazol-5-yl)phenyl)ethyl)pyrrolidine-2-carboxamide]		
< 20	Cc1ncsc1-c1ccc([C@H](C)NC(=O)[C@@H]2C[C@@H](O)CN2C(=O)[C@@H](NC(=O)CCCCCCOc2c(F)ccc3sc(N4CCOCC4)nc23)C(C)(C)C)cc1 [Example 43, (2S,4R)-1-((S)-2-(7-((5-fluoro-2-morpholinobenzo[d]thiazol-4-yl)oxy)heptanamido)-3,3-dimethylbutanoyl)-4-hydroxy-N-((S)-1-(4-(4-methylthiazol-5-yl)phenyl)ethyl)pyrrolidine-2-carboxamide]		
	O=C(O)CCCCNC(=O)COc1c(-c2csc(N3CCOCC3)n2)ccc(F)c1F [Example C1, reference compound]		apoptosis, annexin-V assay (22Rv1 cells): no change in apoptosis
